# In patent US9867825B2, “Pharmaceutical combination comprising binimetinib” (Novartis AG, priority 2012, dated 2018):
# How the values were obtained:
# [1] = tested on: Hs 944.T melanoma cells with activated NRAS; experiment: BrdU uptake assay, Hs 944.T; assay type: cell-based; conditions: Hs 944.T cells
# Experimental: (§1) Three melanoma cell lines, MEL-JUSO, SK-MEL2 and Hs 944.T, which harbor the Q61X activating mutation of NRAS, were tested with Compound A and Compound B to measure their sensitivity to the inhibitors.
# MEL-JUSO xenografts [2] = experiment: Compound A and Compound B efficacy in MEL-JUSO xenografts (NRAS mutant melanoma); assay type: in vivo; conditions: oral
# From the text: The oncogenic drivers in a sizable fraction of melanomas are mutant alleles of NRAS that encode one of several variants at position Q61 in the protein. Similar to activated alleles of BRAF, these alleles encode constitutively activated forms of the protein that drive signaling through the MAPK pathway. One consequence of the activation of MAPK signaling is the elevation of cyclin D1 levels that help drive cell cycle progression. […] Based on these observations, the single agent and combination effects of Compound A, and the MEK1/2 inhibitor Compound B, on the in vivo proliferation of MEL-JUSO melanoma model, harboring mutant alleles of NRAS was studied. […] T/C % is defined as the mean change in tumor volume from the time of treatment initiation to the end of study. The % regression is calculated as 100×ΔT/Tinitial if ΔT<0. Complete regression is defined as non-palpable tumor.
# All treatments were well-tolerated by the animals with no significant body weight loss observed over the duration of the study (Table 5).
# Hs 944.T xenografts = experiment: Compound A efficacy in Hs 944.T xenografts in nude mice; assay type: in vivo, mouse; conditions: for Change in body weight (%, mean ± SEM) / Change in tumor volume (mm^3, mean ± SEM) / Survival / T/C (%): oral
# MEL-JUSO xenografts [3] = experiment: Compound A efficacy in MEL-JUSO xenografts in SCID-beige mice; assay type: in vivo; conditions: Compound A 150 mg/kg qd, oral
# [4] = tested on: MEL-JUSO melanoma cells with activated NRAS; experiment: BrdU uptake assay, MEL-JUSO; assay type: cell-based; conditions: Homo sapiens
# Experimental: as §1
# [5] = tested on: SK-MEL2 melanoma cells with activated NRAS; experiment: BrdU uptake assay, SK-MEL2; assay type: cell-based; conditions: Homo sapiens, SK-MEL-2
# Experimental: as §1
smiles,measurement,setting,value
"CN(C)C(=O)c1cc2cnc(Nc3ccc(N4CCNCC4)cn3)nc2n1C1CCCC1 [Compound A, 7-Cyclopentyl-2-(5-piperazin-1-yl-pyridin-2-ylamino)-7H-pyrrolo[2,3-d]pyrimidine-6-carboxylic acid dimethylamide]",IC50,[1],3830 nM
same,"Change in body weight (%, mean ± SEM)",MEL-JUSO xenografts [2]; Compound A 75 mg/kg qd,−3.9 ± 1.5%
same,"Change in tumor volume (mm^3, mean ± SEM)",MEL-JUSO xenografts [2]; Compound A 75 mg/kg qd,236 ± 32 mm^3
same,Survival,MEL-JUSO xenografts [2]; Compound A 75 mg/kg qd,6/6
same,T/C (%),MEL-JUSO xenografts [2]; Compound A 75 mg/kg qd,47%
same,"Change in body weight (%, mean ± SEM)",MEL-JUSO xenografts [2]; Compound A 150 mg/kg qd,−3.9 ± 2.1%
same,"Change in tumor volume (mm^3, mean ± SEM)",MEL-JUSO xenografts [2]; Compound A 150 mg/kg qd,157 ± 33 mm^3
same,Survival,MEL-JUSO xenografts [2]; Compound A 150 mg/kg qd,6/6
same,T/C (%),MEL-JUSO xenografts [2]; Compound A 150 mg/kg qd,32%
same,"Change in body weight (%, mean ± SEM)",MEL-JUSO xenografts [2]; Compound A 250 mg/kg qd,−2.7 ± 1.6%
same,"Change in tumor volume (mm^3, mean ± SEM)",MEL-JUSO xenografts [2]; Compound A 250 mg/kg qd,9 ± 11 mm^3
same,Survival,MEL-JUSO xenografts [2]; Compound A 250 mg/kg qd,6/6
same,T/C (%),MEL-JUSO xenografts [2]; Compound A 250 mg/kg qd,2%
same,Animals classified as TR deaths due to body weight loss criteria,Hs 944.T xenografts; Compound A 150 mg/kg qd,"Three animals each from the 150 mg/kg and 250 mg/kg Compound A treatment groups were classified as TR deaths due to body weight loss criteria, and excluded from data analysis."
same,"Change in body weight (%, mean ± SEM)",Hs 944.T xenografts; Compound A 150 mg/kg qd,−12.7 ± 2.1%
same,"Change in tumor volume (mm^3, mean ± SEM)",Hs 944.T xenografts; Compound A 150 mg/kg qd,86 ± 17 mm^3
same,Survival,Hs 944.T xenografts; Compound A 150 mg/kg qd,5/8
same,T/C (%),Hs 944.T xenografts; Compound A 150 mg/kg qd,36%
same,Animals classified as TR deaths due to body weight loss criteria,Hs 944.T xenografts; Compound A 250 mg/kg qd,"Three animals each from the 150 mg/kg and 250 mg/kg Compound A treatment groups were classified as TR deaths due to body weight loss criteria, and excluded from data analysis."
same,"Change in body weight (%, mean ± SEM)",Hs 944.T xenografts; Compound A 250 mg/kg qd,−19.7 ± 0.6%
same,"Change in tumor volume (mm^3, mean ± SEM)",Hs 944.T xenografts; Compound A 250 mg/kg qd,45 ± 25 mm^3
same,Survival,Hs 944.T xenografts; Compound A 250 mg/kg qd,5/8
same,T/C (%),Hs 944.T xenografts; Compound A 250 mg/kg qd,19%
same,"Change in body weight (%, mean ± SEM)",MEL-JUSO xenografts [3],−7.3 ± 1.2%
same,"Change in tumor volume (mm^3, mean ± SEM)",MEL-JUSO xenografts [3],−32 ± 14 mm^3
same,Survival,MEL-JUSO xenografts [3],6/6
same,IC50,[4],360 nM
same,IC50,[5],750 nM
"Cn1cnc2c(F)c(Nc3ccc(Br)cc3F)c(C(=O)NOCCO)cc21 [Compound B, 6-(4-bromo-2-fluorophenylamino)-7-fluoro-3-methyl-3H-benzoimidazole-5-carboxylic acid (2-hydroxyethyoxy)-amide]",IC50,[1],554 nM
same,"Change in body weight (%, mean ± SEM)",MEL-JUSO xenografts [2]; Compound B 3.5 mg/kg bid,−0.3 ± 2.1%
same,"Change in tumor volume (mm^3, mean ± SEM)",MEL-JUSO xenografts [2]; Compound B 3.5 mg/kg bid,59 ± 24 mm^3
same,Survival,MEL-JUSO xenografts [2]; Compound B 3.5 mg/kg bid,6/6
same,T/C (%),MEL-JUSO xenografts [2]; Compound B 3.5 mg/kg bid,12%
same,"Change in body weight (%, mean ± SEM)",MEL-JUSO xenografts [2]; Compound B 10 mg/kg bid,5.1 ± 1.1%
same,"Change in tumor volume (mm^3, mean ± SEM)",MEL-JUSO xenografts [2]; Compound B 10 mg/kg bid,−47 ± 11 mm^3
same,Regression (%),MEL-JUSO xenografts [2]; Compound B 10 mg/kg bid,38%
same,Survival,MEL-JUSO xenografts [2]; Compound B 10 mg/kg bid,6/6
same,IC50,[4],24 nM
same,IC50,[5],990 nM
